According to US20250282802A1, “P[…] AND METHODS” (priority 2020, published 2025):
Where two headings read alike, the source gives them in different places.

Key:
[1] = test system: ES-2 (human ovarian cancer); experiment: Cell culture cytotoxicity screening (Alamar Blue), ES-2; type: cell-based; details: for IC50: ES-2, Alamar Blue
Description: (§1) FIG. 8. Cytotoxicity of pantaphos across various cancer cell lines. Assays were conducted as described (mBio. 2021 Feb. 2; 12(1):e03402-20), using the Alamar Blue method with 72-hour treatment using Raptinal ([…]) as Dead cell control; n=3. Cell seeding densities: CT26 (colon carcinoma) 2000 c/w; HOS (osteosarcoma) 2500 c/w; ES-2 (ovarian carcinoma), HCT-116 (colorectal carcinoma), A-549 (lung carcinoma), A-172 (glioblastoma), D54 (glioblastoma), U87 (glioblastoma), T98G (glioblastoma), SK-ML-28 (melanoma), MCF-7 (breast cancer), AM38 (glioblastoma) and MDA-MB-231 (breast cancer) 3000 c/w; U118MG (malignant glioma) 4000 c/w; HepG2 (liver cancer) 8000 c/w. c/w=cells per well. IC50 and Emax values shown in Table 6 were extracted from the raw data plotted in FIG. 8.
(§2) Cell culture cytotoxicity screening. The compounds were evaluated for their ability to kill cancer cell lines in culture, using HOS (osteosarcoma); ES-2 (ovarian cancer); HCT 116 (colon cancer); A549 (lung carcinoma); and A172 (glioma) cells. Human skin fibroblast cells (HFF-1) were also assessed. Cells were seeded (3000 cells well^−1 for ES-2, HCT 116, A549 and A172; 4000 cells well^−1 for HFF-1 and 2500 cells well^−1 for HOS) in a 96-well plate and allowed to attach overnight. Cells were treated with pantaphos in water. The concentrations of the tested compounds were 5 nM to 100 μM (1% water final; 100 μl well^−1). Raptinal (50 μM) was used as a dead control. On each plate, five technical replicates per compound were performed. 72 hours post-treatment, cell viability was assessed using the Alamar Blue method (http://www.bio-rad-antibodies.com/measuring-cytotoxicity-proliferation-spectrophotometry-fluorescence-alamarBlue.html). […] Conversion of Alamar Blue was measured with a plate reader (SpectraMax M3; Molecular Devices) by fluorescence (excitation wavelength: 555 nm; emission wavelength: 585 nm; cutoff 570 nm; autogain). Percentage death was determined by normalizing to water-treated cells and Raptinal-treated cells. […]

[2] = test system: HCT-116 (human colon cancer); experiment: Cell culture cytotoxicity screening (Alamar Blue), HCT-116; type: cell-based; details: HCT-116, Alamar Blue, 72 hours
Description: as §1, with “IC50 and Emax values shown in Table 6 were extracted from the raw data plotted in FIG. 8.” left out
(§3) Cell culture cytotoxicity screening. The compounds were evaluated for their ability to kill cancer cell lines in culture, using HOS (osteosarcoma); ES-2 (ovarian cancer); HCT 116 (colon cancer); A549 (lung carcinoma); and A172 (glioma) cells. Human skin fibroblast cells (HFF-1) were also assessed. […] 72 hours post-treatment, cell viability was assessed using the Alamar Blue method (http://www.bio-rad-antibodies.com/measuring-cytotoxicity-proliferation-spectrophotometry-fluorescence-alamarBlue.html). […] Conversion of Alamar Blue was measured with a plate reader (SpectraMax M3; Molecular Devices) by fluorescence (excitation wavelength: 555 nm; emission wavelength: 585 nm; cutoff 570 nm; autogain). […]

[3] = test system: HFF-1 (human fibroblast cells); experiment: Cell culture cytotoxicity screening (Alamar Blue), HFF-1; type: cell-based; details: HFF-1, Alamar Blue, 72 hours
Description: Cell culture cytotoxicity screening. The compounds were evaluated for their ability to kill cancer cell lines in culture, using HOS (osteosarcoma); ES-2 (ovarian cancer); HCT 116 (colon cancer); A549 (lung carcinoma); and A172 (glioma) cells. Human skin fibroblast cells (HFF-1) were also assessed. Cells were seeded (3000 cells well^−1 for ES-2, HCT 116, A549 and A172; 4000 cells well^−1 for HFF-1 and 2500 cells well^−1 for HOS) in a 96-well plate and allowed to attach overnight. Cells were treated with pantaphos in water. The concentrations of the tested compounds were 5 nM to 100 μM (1% water final; 100 μl well^−1). Raptinal (50 μM) was used as a dead control. On each plate, five technical replicates per compound were performed. 72 hours post-treatment, cell viability was assessed using the Alamar Blue method (http://www.bio-rad-antibodies.com/measuring-cytotoxicity-proliferation-spectrophotometry-fluorescence-alamarBlue.html). Alamar Blue solution (10 μl of 440 μM resazurin in sterile 1×PBS) was added to each well, and the plate was incubated for 3-4 hrs. Conversion of Alamar Blue was measured with a plate reader (SpectraMax M3; Molecular Devices) by fluorescence (excitation wavelength: 555 nm; emission wavelength: 585 nm; cutoff 570 nm; autogain). Percentage death was determined by normalizing to water-treated cells and Raptinal-treated cells. […]

[4] = test system: A-172 (human glioma cancer); experiment: Cell culture cytotoxicity screening (Alamar Blue), A-172; type: cell-based
Description: as §1
Cell culture cytotoxicity screening. The compounds were evaluated for their ability to kill cancer cell lines in culture, using HOS (osteosarcoma); ES-2 (ovarian cancer); HCT 116 (colon cancer); A549 (lung carcinoma); and A172 (glioma) cells. Human skin fibroblast cells (HFF-1) were also assessed. Cells were seeded (3000 cells well^−1 for ES-2, HCT 116, A549 and A172; 4000 cells well^−1 for HFF-1 and 2500 cells well^−1 for HOS) in a 96-well plate and allowed to attach overnight. Cells were treated with pantaphos in water. The concentrations of the tested compounds were 5 nM to 100 μM (1% water final; 100 μl well^−1). Raptinal (50 μM) was used as a dead control. On each plate, five technical replicates per compound were performed. 72 hours post-treatment, cell viability was assessed using the Alamar Blue method (http://www.bio-rad-antibodies.com/measuring-cytotoxicity-proliferation-spectrophotometry-fluorescence-alamarBlue.html). Alamar Blue solution (10 μl of 440 μM resazurin in sterile 1×PBS) was added to each well, and the plate was incubated for 3-4 hrs. Conversion of Alamar Blue was measured with a plate reader (SpectraMax M3; Molecular Devices) by fluorescence (excitation wavelength: 555 nm; emission wavelength: 585 nm; cutoff 570 nm; autogain). Percentage death was determined by normalizing to water-treated cells and Raptinal-treated cells. For IC50 determination, the data were plotted as compound concentration versus dead cell percentage and fitted to a logistic-dose-response curve using OriginPro 2019 (OriginLab). The data were generated in triplicate, and IC50 values are reported as the average of three separate experiments along with SEM values.

U87 (glioblastoma) = experiment: Cytotoxicity profiling (Alamar Blue), U87; type: cell-based; details: Homo sapiens, 72-hour treatment
Description: as §1, with “IC50 and Emax values shown in Table 6 were extracted from the raw data plotted in FIG. 8.” left out
as §3

[5] = test system: U118MG (malignant glioma); experiment: Cytotoxicity profiling (Alamar Blue), U118MG; type: cell-based; details: Homo sapiens, U-118-MG, 72-hour treatment
Description: as §1, with “IC50 and Emax values shown in Table 6 were extracted from the raw data plotted in FIG. 8.” left out
as §3

T98G (glioblastoma) = experiment: Cytotoxicity profiling (Alamar Blue), T98G; type: cell-based, human
Description: as §1, with “IC50 and Emax values shown in Table 6 were extracted from the raw data plotted in FIG. 8.” left out
as §3

[6] = test system: MDA-MB-231 (breast cancer); experiment: Cytotoxicity profiling (Alamar Blue), MDA-MB-231; type: cell-based, human
Description: as §1, §2

CT26 (colon carcinoma) = experiment: Cytotoxicity profiling (Alamar Blue), CT26; type: cell-based
Description: as §1, §2

[7] = test system: Klebsiella pneumoniae ATCC 27736; experiment: Antibacterial bioassay (MIC), Klebsiella pneumoniae; type: cell-based; details: CLSI
Description: (§4) Antibacterial bioassays. Susceptibility testing for the ESKAPE pathogens and Salmonella enterica LT2 was performed using a Kirby-Bauer method as outlined by the Clinical and Laboratory Standards Institute (CLSI). For rich media bioassays, Mueller Hinton Broth 2 (MH-2, Sigma-Aldrich, 90922) was used for all strains except 1% BHI was supplemented for Enterococcus faecalis ATCC 19433. For minimal media bioassays, glucose-MOPS minimal medium was used. Briefly, overnight bacterial cultures were sub-cultured and inoculated into 5 mL top agar (0.7% agar) for final concentration of 5×10^5 CFU/mL. Then, 20 μL of a compound 2-fold dilution series (200, 100, 50, 25, 12.5, 6.25 μM in water) was spotted on 6 mm diameter blank paper discs (BD BBL™ 231039). Control discs received 20 μL of 50 mg/mL kanamycin. Plates were incubated at 35° C. for 20-24 hours. […] Sensitivity of the IPTG-inducible phosphonate uptake strain WM6242 to pantaphos was tested using a disk diffusion assay. Plates containing growth medium were overlayed with 5 mL of top agar (0.7% agar) inoculated with 100 μL (OD600=0.8) of the phosphonate-specific E. coli indicator strain (WM6242) with or without addition of 1 mM IPTG. WM6242 is engineered with an IPTG-inducible, non-specific phosphonate uptake system (phnCDE). […]

Salmonella enterica LT2 = experiment: Antibacterial bioassay (MIC), Salmonella enterica; type: cell-based; details: CLSI
Description: as §4

[8] = read-out: Emax = percentage cell death (converted)

O=C(O)/C=C(\C(=O)O)C(O)P(=O)(O)O (stereo not shown) [pantaphos, 2-(hydroxy(phosphono)methyl)maleate]
IC50 ([1]; 72-hour treatment (Table 6)): > 100 µM
cytotoxicity at the maximum dose, in words ([1]; ES-2, maximum dose): unaffected
IC50 ([1]; Homo sapiens, 72 hours): > 100 µM
IC50 [2]: 10.4 ± 2 µM
Emax [2, 8]: 59%
IC50 [3]: 6.69 ± 0.29 µM
Emax [3, 8]: 85%
IC50 ([4]; A 172, 72 h, A-172, Alamar Blue, 72-hour treatment (Table 6)): 1.01 ± 0.06 µM
IC50 ([4]; A 172, 72 h, A-172, Alamar Blue, 72 hours): 1 µM
IC50 ([4]; A 172, A-172 (text of Example 5)): 1 µM
Emax ([4]; A-172, Alamar Blue, 72 hours, read-out: Emax = percentage cell death (converted)): 99%
Emax (U87 (glioblastoma)): 38 to 48%
Emax [5]: 38 to 45%
IC50 (T98G (glioblastoma); Homo sapiens, T98G, Alamar Blue, 72-hour treatment (Table 6)): > 100 µM
sensitivity of the cell line to pantaphos, in words (T98G (glioblastoma); glioblastoma cell line printed as TG98): resistant
Emax ([6]; Homo sapiens, MDA-MB-231, Alamar Blue, 72-hour treatment): 91%
IC50 ([6]; Homo sapiens, MDA-MB-231, Alamar Blue, 72-hour treatment (Table 6)): 2.68 ± 0.23 µM
sensitivity of the cell line to the compound, in words ([6]; MDA-MB-231): sensitive
sensitivity of the cell line to the compound, in words (CT26 (colon carcinoma); CT26): sensitive
IC50 (CT26 (colon carcinoma); CT26, Alamar Blue, 72-hour treatment (Table 6)): 3.38 ± 0.09 µM
Emax (CT26 (colon carcinoma); Mus musculus, CT26, Alamar Blue, 72-hour treatment): 81 to 92%
MIC ([7]; ATCC27736, Mueller-Hinton 2 medium, read-out: MIC, Rich medium): > 200 µM
MIC ([7]; ATCC27736, glucose-MOPS minimal medium, read-out: MIC, Minimal medium): > 200 µM
MIC (Salmonella enterica LT2; Mueller-Hinton 2 medium, read-out: MIC, Rich medium): > 200 µM
MIC (Salmonella enterica LT2; glucose-MOPS minimal medium, read-out: MIC, Minimal medium): > 200 µM
